Where “and” joins values, the source holds several entries; their conditions need not be identical. Identical values can stand only once. Counter-ions that a name gives are not always drawn. Like-named read-outs stand apart in the source and are kept apart here. Values belong to the compound of their own block, whether it stands above or below them.
Tests used:
KAT-II [1] = molecular target: T1, KAT-II (Homo sapiens, UniProt Q8N5Z0); parameters: method as in PMID 27367665; settings: previously measured; cited from earlier work
T1 construct: made in house
T1 sequence (Q8N5Z0 30-425): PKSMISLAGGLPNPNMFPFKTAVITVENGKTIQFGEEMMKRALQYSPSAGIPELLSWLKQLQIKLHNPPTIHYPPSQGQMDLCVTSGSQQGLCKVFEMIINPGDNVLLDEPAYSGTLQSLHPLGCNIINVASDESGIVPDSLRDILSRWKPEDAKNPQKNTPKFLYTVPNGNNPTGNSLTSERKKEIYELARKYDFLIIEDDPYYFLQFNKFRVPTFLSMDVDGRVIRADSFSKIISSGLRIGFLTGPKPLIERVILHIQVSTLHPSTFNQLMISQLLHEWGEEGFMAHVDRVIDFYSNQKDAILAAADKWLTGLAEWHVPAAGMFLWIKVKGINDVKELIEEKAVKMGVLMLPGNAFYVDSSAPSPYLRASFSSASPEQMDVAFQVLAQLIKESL

KAT-II [2] = molecular target: T1, KAT-II; parameters: method as in PMID 27367665; settings: SPR, chi^2 0.34; cited from earlier work
human KAT-I = molecular target: T2, human KAT-I (Homo sapiens, UniProt Q16773); assay: HPLC inhibition assay on recombinant human KAT-I (KYNA production); assay type: biochemical
T2 sequence (Q16773 1-422): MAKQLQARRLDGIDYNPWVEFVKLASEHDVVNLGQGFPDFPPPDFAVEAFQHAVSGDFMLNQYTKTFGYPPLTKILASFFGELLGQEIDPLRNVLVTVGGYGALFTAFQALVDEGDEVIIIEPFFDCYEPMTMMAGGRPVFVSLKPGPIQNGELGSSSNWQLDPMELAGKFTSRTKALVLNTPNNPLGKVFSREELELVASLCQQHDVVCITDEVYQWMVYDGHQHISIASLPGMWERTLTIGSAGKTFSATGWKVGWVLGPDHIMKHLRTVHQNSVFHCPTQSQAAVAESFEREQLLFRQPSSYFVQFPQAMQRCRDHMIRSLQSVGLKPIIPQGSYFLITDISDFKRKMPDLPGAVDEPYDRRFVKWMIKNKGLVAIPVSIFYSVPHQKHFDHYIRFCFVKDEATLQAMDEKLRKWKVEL
Protocol: The KAT inhibition assay was based on that described previously[35]. 0.7 µg of KAT-I or KAT-II was incubated at 37 °C for 10 minutes in a 50 µL reaction mixture containing PLP (50 µM), α-ketoglutarate (5 mM), L-KYN (5 mM) in PBS, pH 7.4, and the inhibitor studied (1–2000 µM). Following incubation, the reaction was terminated by adding formic acid (0.8 M) in a 1:1 ratio. 50 µL of the mixture was transferred into a vial with 950 µL of water for HPLC analysis.

KAT-II [3] = molecular target: T1, KAT-II; assay: HPLC inhibition assay on recombinant human KAT-II (KYNA production); assay type: biochemical
Protocol: GraphPad Prism v7.02 software[59] was used to develop a nonlinear regression fit of the data collected in the inhibition assays. The IC50 is reported with the standard error.
The expression and purification of recombinant KAT-I and KAT-II protein was completed as previously described[60],[61].
The KAT inhibition assay was based on that described previously. […] Following incubation, the reaction was terminated by adding formic acid (0.8 M) in a 1:1 ratio. 50 µL of the mixture was transferred into a vial with 950 µL of water for HPLC analysis.
The production of KYNA was measured using HPLC with UV detection at a wavelength of 330 nm, using a C18 reverse-phase column, and 50% (v/v) water and 50% (v/v) methanol mobile phase. The data was collected in triplicate.

KAT-II [4] = molecular target: T1, KAT-II; assay: Surface plasmon resonance binding assay, steady state affinity model; settings: KAT-II on CM5 chip, 25 °C, chi^2 0.481
Protocol: SPR was employed to evaluate the binding profile of estradiol disulfate on KAT-II. KAT-II was bound to a CM5 chip by amine coupling (achieving approximately 8000 RU). […] Due to the nature of this interaction, kinetic analyses could not be performed to directly evaluate the association and dissociation rate constants.
SPR binding affinity measurements were performed using the Biacore T200 with a CM5 sensor chip (GE Healthcare Life Sciences, Sydney, Australia). The experiment was prepared and obtained with the Biacore T200 Control Software, and analysed with the Biacore T200 Evaluation Software.
Prior to performing the SPR experiments, the solutions were filter sterilised for 10 min at 25 °C. KAT-II was diluted to a concentration of 350 µg/mL using sodium acetate (pH 4.5). The Biacore T200 compartment temperature was controlled at 25 °C and the flow rate was set to 10 µL/min. Using a 1:1 mixture of EDC (400 mM) and sulfo-NHS (100 mM), two flow cells on a CM5 sensor chip (containing a carboxymethylated dextran surface) were activated. Flow cell one contained a blank immobilisation (PBST buffer injection) and flow cell two had the prepared KAT-II sample injected. The two flow cells were deactivated using an injection of 1 M ethanolamine.
The analyte, estradiol disulfate, was prepared in running buffer (PBST with 5% DMSO) in a concentration series from 170 nM-43750 nM. […]

[5] = recombinant human KAT-I, inhibitor 1–2000 µM, read-out: IC50 on KAT-I
[6] = recombinant human KAT-II, inhibitor 1–2000 µM, read-out: IC50 on KAT-II

Structure (SMILES): CC1COc2c(N3CCN(N)CC3)c(F)cc3c(=O)c(C(=O)O)cn1c23 (stereo not drawn) [BFF-122]
IC50 (KAT-II [1]): 15 to 20 µM

Structure (SMILES): O=C(O)C(Cc1ccccc1)N1C(=O)c2cc(Cl)c(Cl)cc2C1=O (stereo not drawn) [NS-1502]
IC50 (KAT-II [1]): 315 µM | Kd (KAT-II [2]): 7.2 µM

Structure (SMILES): NC1Cc2ccccc2N(O)C1=O (stereo not drawn) [PF-04859989, reference compound]
IC50 (KAT-II [1]): 1 to 3 µM

IC50 (human KAT-I; [5]): > 2000 µM | IC50 (KAT-II [3]; [6]): > 2000 µM
Structure (SMILES): C[C@]12CCC3c4ccc(OS(=O)(=O)O)cc4CCC3C1CC[C@@H]2O (stereo partly drawn) [estradiol 3-sulfate, estradiol 3-sulfate sodium salt]

Structure (SMILES): C[C@]12CC[C@@H]3c4ccc(OS(=O)(=O)O)cc4CC[C@H]3[C@@H]1CC[C@@H]2OS(=O)(=O)O [estradiol disulfate, estradiol 3,17-disulfate dipotassium salt]
IC50 (human KAT-I; recombinant human KAT-I, PLP 50 µM, L-KYN 5 mM, 37 °C 10 min, ± standard error, read-out: IC50 on KAT-I): 292 µM | Increase of inhibition compared to estradiol (KAT-II [3]; KAT-I and KAT-II inhibition assays, attributed to the 17-sulfate moiety): 10–100 fold | IC50 (KAT-II [3]; recombinant human KAT-II, PLP 50 µM, L-KYN 5 mM, 37 °C 10 min, ± standard error, read-out: IC50 on KAT-II): 26.3 µM | Reversibility of KAT-II inhibition (KAT-II [3]; shown by varying PLP concentration in the reaction mixture): reversible | Kd (KAT-II [4]): 5.05 µM

Structure (SMILES): C[C@]12CC[C@@H]3c4ccc(O)cc4CC[C@H]3[C@@H]1CC[C@@H]2O [estradiol, reference compound]
IC50 (human KAT-I): > 2000 µM | IC50 (KAT-II [3]): > 2000 µM

IC50 (human KAT-I; [5]): > 2000 µM | IC50 (KAT-II [3]; [6]): > 2000 µM and ~2000 µM
Structure (SMILES): C[C@]12CCC3c4ccc(OS(=O)(=O)O)cc4CCC3C1CCC2=O (stereo partly drawn) [estrone sulfate, estrone sulfate potassium salt]

Reference: paper PMC5730616, “Inhibition of human kynurenine aminotransferase isozymes by estrogen and its derivatives” (Scientific Reports, 2017)
